Seven compounds from ChEMBL document CHEMBL1147592, “Novel quinazoline-quinoline alkaloids with cytotoxic and DNA topoisomerase II inhibitory activities” (Bioorg Med Chem Lett, 2004) can be followed below.

Values after ≈ are worked out from the molar mass of the structure shown.

One test concerns the target DNA topoisomerase II (Homo sapiens, UniProt P11388+Q02880). Description: Inhibitory activity against human DNA topoisomerase II. It is filed as protein assay.
In another test the test system is P388. Nature of the test: Cytotoxic activity against mouse leukemia P-388 cells. It is filed as functional, cell-based.

A word on the IC50: it is the concentration needed to halve the response being measured. Lower therefore signals inhibition by little substance. As for `O=c1c2ccccc2nc2n1C(O)c1cc3ccccc3nc1-2` (stereo not drawn), the IC50 against DNA topoisomerase II was 25 µM; with P388, 5 µg/mL (≈ 16.6 µM).

Consider `COC1c2cc3ccccc3nc2-c2nc3ccccc3c(=O)n21` (stereo not drawn), for which the IC50 on DNA topoisomerase II was found to be 25 µM; in the test with P388 it was 9 µg/mL (≈ 28.5 µM).

In the case of `O=C(c1cnc2ccccc2c1)c1nc(O)c2ccccc2n1`, the results for the IC50 against DNA topoisomerase II and in the test on P388 were 25 µM and 20 µg/mL (≈ 66.4 µM), respectively. In the case of `CC(=O)NC1c2cc3ccccc3nc2-c2nc3ccccc3c(=O)n21` (stereo not drawn), the IC50 came out at 25 µM at DNA topoisomerase II and 33 µg/mL (≈ 96.4 µM) in the test with P388.

With `Oc1nc(-c2cnc3ccccc3c2)nc2ccccc12`, the IC50 against DNA topoisomerase II is 25 µM; with P388, 40 µg/mL (≈ 146 µM).

For the compound `CC(C(C)N1CC(=O)NC(=O)C1)N1CC(=O)NC(=O)C1` (stereo not drawn) [ICRF-193], the IC50 against DNA topoisomerase II is 13.9 µM. In the case of `O=c1c2ccccc2nc2n1Cc1cc3ccccc3nc1-2` [LUOTONIN A], the half-inhibitory concentration (IC50) was 28.5 µM against DNA topoisomerase II and 1.8 µg/mL (≈ 6.31 µM) with P388.
